Measured values reported in publication PMC10761730, “Serglycin secreted by late-stage nucleus pulposus cells is a biomarker of intervertebral disc degeneration” (Nature Communications, 2024).

Molecular target: T1, Serglycin (SRGN) (Homo sapiens, UniProt P10124)
T1 construct: endogenous protein in primary human nucleus pulposus cells; CETSA with Western blot read-out
T1 sequence (P10124 28-158): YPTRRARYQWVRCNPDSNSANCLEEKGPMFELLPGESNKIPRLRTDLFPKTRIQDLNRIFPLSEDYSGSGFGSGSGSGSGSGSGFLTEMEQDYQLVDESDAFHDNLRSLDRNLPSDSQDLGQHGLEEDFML
Assay: cellular thermal shift assay (CETSA), Western blot
Format: cell-based
Details: intact NPCs pretreated with DAP for 12 h, heated 3 min, freeze-thaw lysis; melt curve only in figure

O=c1ccc2ccc(O)c(O)c2o1 [Daphnetin]
cellular thermal shift assay (CETSA), Western blot: CETSA) of DAP and SRGN proteins also suggested that DAP could bind to SRGN
